{"source": "ChEMBL document CHEMBL1201862", "about": "“PubChem BioAssay data set” (2004)", "key": {"[1]": {"biological_target": "T1, Small ubiquitin-related modifier 1 (Homo sapiens, UniProt P63165)", "T1 sequence (P63165 whole entry)": "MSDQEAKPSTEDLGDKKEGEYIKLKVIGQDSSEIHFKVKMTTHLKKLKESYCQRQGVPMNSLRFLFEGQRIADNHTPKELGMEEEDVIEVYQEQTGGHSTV", "test": "inhibitors of SUMO1 partner interactions, dose response, biochemical, FRET (AID 624383)", "assay_type": "functional", "conditions": "read-out: IC50_Mean"}, "[2]": {"biological_target": "T2, Apoptotic protease-activating factor 1 (Homo sapiens, UniProt O14727)", "T2 sequence (O14727 whole entry)": "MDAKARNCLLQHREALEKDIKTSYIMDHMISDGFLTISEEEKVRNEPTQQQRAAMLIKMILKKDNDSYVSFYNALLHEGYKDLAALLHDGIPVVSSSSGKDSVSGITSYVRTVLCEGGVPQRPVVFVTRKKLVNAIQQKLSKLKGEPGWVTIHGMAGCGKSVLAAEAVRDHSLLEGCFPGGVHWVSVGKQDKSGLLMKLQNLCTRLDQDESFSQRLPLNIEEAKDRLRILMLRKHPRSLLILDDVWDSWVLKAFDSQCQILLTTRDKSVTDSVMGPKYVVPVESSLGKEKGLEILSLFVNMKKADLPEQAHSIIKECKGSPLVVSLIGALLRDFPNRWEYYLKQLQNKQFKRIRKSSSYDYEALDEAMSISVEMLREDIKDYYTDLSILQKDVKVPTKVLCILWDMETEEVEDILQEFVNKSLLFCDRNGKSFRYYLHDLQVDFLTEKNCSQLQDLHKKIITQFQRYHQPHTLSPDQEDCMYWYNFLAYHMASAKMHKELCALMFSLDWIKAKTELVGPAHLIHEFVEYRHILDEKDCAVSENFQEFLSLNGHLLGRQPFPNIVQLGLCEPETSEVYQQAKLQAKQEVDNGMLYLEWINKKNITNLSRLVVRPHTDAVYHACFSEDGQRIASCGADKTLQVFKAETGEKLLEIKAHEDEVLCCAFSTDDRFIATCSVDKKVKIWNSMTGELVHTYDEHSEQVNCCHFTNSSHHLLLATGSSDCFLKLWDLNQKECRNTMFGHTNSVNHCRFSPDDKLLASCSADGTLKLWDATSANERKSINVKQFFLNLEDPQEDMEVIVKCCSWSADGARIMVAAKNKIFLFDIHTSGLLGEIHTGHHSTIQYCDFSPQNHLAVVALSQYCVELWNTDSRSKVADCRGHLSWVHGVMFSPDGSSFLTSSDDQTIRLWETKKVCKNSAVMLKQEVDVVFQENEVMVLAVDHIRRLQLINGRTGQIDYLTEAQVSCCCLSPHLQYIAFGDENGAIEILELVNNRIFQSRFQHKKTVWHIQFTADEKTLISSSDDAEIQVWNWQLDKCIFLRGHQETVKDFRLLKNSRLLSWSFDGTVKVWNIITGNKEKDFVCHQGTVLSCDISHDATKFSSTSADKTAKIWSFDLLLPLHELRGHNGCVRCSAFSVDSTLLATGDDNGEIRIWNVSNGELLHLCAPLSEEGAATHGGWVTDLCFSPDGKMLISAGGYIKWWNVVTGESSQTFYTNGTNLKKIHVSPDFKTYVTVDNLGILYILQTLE", "test": "activation of Apaf-1 mediated apoptosis – fluorescent, uHTS hits, dose response (AID 588554)", "assay_type": "functional"}, "[3]": {"biological_target": "T1, Small ubiquitin-related modifier 1", "test": "inhibitors of SUMO1 peptide binding, dose response, biochemical, fluorescence polarization, uHTS hits (AID 624382)", "assay_type": "functional", "conditions": "read-out: IC50_Mean"}, "[4]": {"biological_target": "DNA dC->dU-editing enzyme APOBEC-3A (Homo sapiens, UniProt P31941)", "sequence (P31941 whole entry)": "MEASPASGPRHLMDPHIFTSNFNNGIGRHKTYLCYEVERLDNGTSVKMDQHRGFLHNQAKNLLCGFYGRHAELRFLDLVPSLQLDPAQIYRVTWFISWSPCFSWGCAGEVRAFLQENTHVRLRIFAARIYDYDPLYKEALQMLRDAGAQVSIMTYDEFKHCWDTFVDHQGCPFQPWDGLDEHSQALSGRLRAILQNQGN", "test": "APOBEC3A DNA deaminase inhibitors, dose response, biochemical (AID 504722)", "assay_type": "functional"}, "[5]": {"biological_target": "T3, Voltage-gated N-type calcium channel alpha-1B subunit/Amyloid beta A4 precursor protein-binding family A member 1 (Homo sapiens, UniProt Q00975+Q02410)", "T3 sequence (Q00975 whole entry)": "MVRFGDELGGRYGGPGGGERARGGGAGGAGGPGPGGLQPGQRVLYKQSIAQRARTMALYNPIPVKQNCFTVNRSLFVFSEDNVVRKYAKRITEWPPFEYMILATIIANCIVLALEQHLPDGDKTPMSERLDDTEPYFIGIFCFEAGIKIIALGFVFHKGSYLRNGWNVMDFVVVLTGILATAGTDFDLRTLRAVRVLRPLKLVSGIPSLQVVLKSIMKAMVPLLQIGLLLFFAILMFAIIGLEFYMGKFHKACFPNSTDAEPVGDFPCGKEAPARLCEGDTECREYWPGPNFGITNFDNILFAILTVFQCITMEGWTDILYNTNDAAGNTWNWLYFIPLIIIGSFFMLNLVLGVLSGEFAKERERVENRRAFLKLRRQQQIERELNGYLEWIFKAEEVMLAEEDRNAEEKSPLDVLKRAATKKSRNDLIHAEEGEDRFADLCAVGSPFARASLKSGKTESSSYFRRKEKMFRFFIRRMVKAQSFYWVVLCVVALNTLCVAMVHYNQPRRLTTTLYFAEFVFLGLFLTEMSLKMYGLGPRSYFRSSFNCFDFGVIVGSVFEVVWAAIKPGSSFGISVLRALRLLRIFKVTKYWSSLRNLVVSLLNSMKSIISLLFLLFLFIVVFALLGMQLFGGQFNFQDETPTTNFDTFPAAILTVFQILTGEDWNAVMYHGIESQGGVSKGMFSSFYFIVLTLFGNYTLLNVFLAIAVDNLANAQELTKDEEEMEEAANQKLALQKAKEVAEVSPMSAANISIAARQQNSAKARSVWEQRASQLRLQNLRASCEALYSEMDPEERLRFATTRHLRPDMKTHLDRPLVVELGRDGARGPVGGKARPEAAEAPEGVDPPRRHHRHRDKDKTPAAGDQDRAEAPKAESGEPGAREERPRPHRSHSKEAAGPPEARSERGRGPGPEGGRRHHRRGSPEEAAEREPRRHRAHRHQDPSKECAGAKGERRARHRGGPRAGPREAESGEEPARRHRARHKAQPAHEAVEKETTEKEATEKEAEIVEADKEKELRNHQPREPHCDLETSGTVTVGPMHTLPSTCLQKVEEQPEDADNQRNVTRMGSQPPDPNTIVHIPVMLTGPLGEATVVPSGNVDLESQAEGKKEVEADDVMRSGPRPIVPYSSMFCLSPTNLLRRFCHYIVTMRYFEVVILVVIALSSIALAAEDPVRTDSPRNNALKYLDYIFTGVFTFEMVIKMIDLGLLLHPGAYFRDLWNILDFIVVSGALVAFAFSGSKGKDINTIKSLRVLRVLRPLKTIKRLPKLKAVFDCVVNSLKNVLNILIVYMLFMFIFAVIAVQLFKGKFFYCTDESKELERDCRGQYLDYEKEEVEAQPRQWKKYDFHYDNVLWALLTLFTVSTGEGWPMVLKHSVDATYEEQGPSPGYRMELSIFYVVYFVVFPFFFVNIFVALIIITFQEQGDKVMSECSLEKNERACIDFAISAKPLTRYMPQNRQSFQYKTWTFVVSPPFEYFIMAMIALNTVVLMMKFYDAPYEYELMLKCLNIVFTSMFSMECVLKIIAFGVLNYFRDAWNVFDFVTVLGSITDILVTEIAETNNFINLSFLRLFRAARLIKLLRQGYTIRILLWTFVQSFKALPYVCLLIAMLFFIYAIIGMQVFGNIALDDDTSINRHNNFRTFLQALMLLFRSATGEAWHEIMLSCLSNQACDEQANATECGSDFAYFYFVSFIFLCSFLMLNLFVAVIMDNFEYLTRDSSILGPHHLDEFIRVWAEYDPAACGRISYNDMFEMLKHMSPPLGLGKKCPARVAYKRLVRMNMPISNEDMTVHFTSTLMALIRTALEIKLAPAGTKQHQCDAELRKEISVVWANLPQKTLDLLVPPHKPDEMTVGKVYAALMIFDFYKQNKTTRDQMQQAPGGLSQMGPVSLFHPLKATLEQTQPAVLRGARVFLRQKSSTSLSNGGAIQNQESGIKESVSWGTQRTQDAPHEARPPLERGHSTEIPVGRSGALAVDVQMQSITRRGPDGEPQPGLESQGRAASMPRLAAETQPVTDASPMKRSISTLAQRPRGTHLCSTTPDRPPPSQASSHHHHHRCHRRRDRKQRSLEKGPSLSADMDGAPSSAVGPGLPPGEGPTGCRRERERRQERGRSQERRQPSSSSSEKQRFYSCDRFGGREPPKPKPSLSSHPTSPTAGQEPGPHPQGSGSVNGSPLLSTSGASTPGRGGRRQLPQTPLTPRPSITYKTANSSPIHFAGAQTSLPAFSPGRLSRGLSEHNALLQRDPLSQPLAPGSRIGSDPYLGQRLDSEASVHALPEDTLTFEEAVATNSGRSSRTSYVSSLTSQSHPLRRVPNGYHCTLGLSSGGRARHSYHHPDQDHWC", "T3 sequence (Q02410 whole entry)": "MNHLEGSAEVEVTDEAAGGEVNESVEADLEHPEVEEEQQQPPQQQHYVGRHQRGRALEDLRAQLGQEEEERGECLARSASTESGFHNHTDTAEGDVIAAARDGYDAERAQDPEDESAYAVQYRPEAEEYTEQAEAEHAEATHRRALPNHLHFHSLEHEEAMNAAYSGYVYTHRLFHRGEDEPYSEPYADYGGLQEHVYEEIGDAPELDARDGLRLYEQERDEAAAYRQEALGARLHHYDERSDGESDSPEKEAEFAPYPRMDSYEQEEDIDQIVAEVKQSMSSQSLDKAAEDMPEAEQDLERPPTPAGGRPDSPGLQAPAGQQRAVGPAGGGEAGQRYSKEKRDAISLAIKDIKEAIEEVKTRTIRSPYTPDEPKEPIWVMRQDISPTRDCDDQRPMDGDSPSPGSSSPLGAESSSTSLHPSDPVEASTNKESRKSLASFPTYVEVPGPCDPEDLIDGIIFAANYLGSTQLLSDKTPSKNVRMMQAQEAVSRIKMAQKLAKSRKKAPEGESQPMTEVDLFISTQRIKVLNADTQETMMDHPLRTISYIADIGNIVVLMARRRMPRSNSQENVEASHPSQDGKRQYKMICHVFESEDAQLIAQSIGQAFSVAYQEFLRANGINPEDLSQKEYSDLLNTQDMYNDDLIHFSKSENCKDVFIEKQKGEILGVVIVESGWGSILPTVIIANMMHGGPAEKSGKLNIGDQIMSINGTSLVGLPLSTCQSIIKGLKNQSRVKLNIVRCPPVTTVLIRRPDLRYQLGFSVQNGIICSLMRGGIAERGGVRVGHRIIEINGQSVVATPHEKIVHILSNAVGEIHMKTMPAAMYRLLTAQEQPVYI", "assay_type": "protein assay"}, "[6]": {"biological_target": "T3, Voltage-gated N-type calcium channel alpha-1B subunit/Amyloid beta A4 precursor protein-binding family A member 1", "assay_type": "protein assay", "remark": "listed apart in the source"}, "[7]": {"biological_target": "DNA dC->dU-editing enzyme APOBEC-3G (Homo sapiens, UniProt Q9HC16)", "sequence (Q9HC16 whole entry)": "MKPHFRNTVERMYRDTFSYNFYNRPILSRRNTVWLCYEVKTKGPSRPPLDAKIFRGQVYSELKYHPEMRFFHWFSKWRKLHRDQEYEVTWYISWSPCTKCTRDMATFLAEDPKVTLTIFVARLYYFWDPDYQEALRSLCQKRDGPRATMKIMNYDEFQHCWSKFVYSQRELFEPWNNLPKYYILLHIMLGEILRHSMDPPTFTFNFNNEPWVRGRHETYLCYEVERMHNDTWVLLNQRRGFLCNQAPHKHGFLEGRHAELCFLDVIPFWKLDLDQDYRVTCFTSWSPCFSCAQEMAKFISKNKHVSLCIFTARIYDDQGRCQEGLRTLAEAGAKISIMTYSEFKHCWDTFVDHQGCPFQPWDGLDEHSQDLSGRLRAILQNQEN", "test": "Dose Response confirmation of small molecule APOBEC3G DNA Deaminase Inhibitors via a fluorescence-based single-stranded DNA deaminase assay. [Related pubchem assays (depositor defined):AID493012, AID493028]", "assay_type": "functional"}, "[8]": {"biological_target": "DNA (cytosine-5)-methyltransferase 1 (Homo sapiens, UniProt P26358)", "test": "DNMT1 methyltransferase inhibitors, confirmation, biochemical, fluorescent molecular beacon (AID 602386)", "assay_type": "functional"}, "[9]": {"biological_target": "Induced myeloid leukemia cell differentiation protein Mcl-1 (Homo sapiens, UniProt Q07820)", "sequence (Q07820 whole entry)": "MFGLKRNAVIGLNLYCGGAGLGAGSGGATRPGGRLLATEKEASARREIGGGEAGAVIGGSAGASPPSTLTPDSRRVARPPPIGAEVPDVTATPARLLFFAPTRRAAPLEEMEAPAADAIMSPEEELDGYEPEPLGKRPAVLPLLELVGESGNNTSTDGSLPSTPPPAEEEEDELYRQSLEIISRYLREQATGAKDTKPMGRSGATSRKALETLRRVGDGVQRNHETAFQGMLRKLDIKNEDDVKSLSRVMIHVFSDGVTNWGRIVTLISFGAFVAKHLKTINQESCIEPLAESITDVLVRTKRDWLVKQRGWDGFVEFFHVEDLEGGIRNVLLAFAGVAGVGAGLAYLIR", "assay_type": "functional"}, "Caspase-6": {"biological_target": "T4, Caspase-6 (Homo sapiens, UniProt P55212)", "T4 sequence (P55212 whole entry)": "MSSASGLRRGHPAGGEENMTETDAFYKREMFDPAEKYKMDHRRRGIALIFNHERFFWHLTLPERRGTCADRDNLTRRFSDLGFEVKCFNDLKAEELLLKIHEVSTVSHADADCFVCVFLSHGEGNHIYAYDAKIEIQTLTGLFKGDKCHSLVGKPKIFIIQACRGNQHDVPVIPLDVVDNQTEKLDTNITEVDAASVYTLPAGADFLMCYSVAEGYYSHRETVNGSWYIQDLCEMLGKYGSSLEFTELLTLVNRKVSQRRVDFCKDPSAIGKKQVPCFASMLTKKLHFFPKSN", "test": "human caspase-6 inhibitors, dose response, biochemical, VEID-R110 fluorescence, cherry-pick (AID 720632)"}, "Caspase-7": {"biological_target": "Caspase-7 (Homo sapiens, UniProt P55210)", "sequence (P55210 24-198 limits assumed)": "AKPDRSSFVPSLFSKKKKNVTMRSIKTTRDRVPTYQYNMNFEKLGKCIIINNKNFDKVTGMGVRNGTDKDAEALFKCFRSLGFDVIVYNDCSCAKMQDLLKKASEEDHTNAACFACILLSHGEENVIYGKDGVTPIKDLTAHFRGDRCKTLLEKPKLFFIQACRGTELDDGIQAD", "sequence (P55210 207-303 limits assumed)": "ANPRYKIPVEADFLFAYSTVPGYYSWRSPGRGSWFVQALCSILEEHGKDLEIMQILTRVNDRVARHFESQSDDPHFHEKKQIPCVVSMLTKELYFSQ", "test": "human caspase-7 inhibitors, dose response, selectivity assay for caspase-6 inhibitor project, biochemical, DEVD-R110 fluorescence, cherry-pick (AID 743295)", "assay_type": "[…]"}, "Keap1/Nrf2": {"biological_target": "Keap1/Nrf2 (Homo sapiens, UniProt Q14145)", "test": "Keap1-Nrf2 protein-protein interaction inhibitors, dose response, biochemical, fluorescence polarization, cherry-picked samples (AID 588683)"}, "[10]": {"test": "Luminescence Cell-Based Dose Retest to Confirm Inhibitors of Cancer Stem Cells. [Related pubchem assays (depositor defined):AID2717, AID2721]", "assay_type": "functional", "conditions": "Homo sapiens"}, "[11]": {"biological_target": "T5, Latent membrane protein 1 (Human herpesvirus 4 (strain B95-8), UniProt P03230)", "T5 sequence (P03230 whole entry)": "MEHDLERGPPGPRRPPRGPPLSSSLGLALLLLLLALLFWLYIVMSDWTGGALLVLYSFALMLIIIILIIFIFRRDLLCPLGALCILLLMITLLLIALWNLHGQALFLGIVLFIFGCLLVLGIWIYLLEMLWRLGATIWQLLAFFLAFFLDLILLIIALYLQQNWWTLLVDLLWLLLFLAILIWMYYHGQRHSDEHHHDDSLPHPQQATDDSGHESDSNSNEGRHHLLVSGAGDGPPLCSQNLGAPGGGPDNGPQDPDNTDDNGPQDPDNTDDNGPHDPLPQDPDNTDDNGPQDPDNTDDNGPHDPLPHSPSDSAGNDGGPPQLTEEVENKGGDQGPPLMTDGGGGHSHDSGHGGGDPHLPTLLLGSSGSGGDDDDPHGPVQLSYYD", "test": "TES1-eGFP NF-kB reporter inhibition versus Tet-On dsRED, dose response, selectivity assay for LMP1 NF-kB inhibitor project, imaging, HEK293T, dual-color eGFP/dsRED, cherry-picks (AID 588398)", "assay_type": "functional, cell-based"}, "[12]": {"biological_target": "SWI/SNF-related matrix-associated actin-dependent regulator of chromatin subfamily A member 2 (Homo sapiens, UniProt P51531)", "test": "Luminescence-based cell-based high throughput dose response assay to identify activators of the function of SWI/SNF related, matrix associated, actin dependent regulator of chromatin, subfamily a, member 2 (SMARCA2, BRM).", "assay_type": "functional"}, "[13]": {"test": "Counterscreen for activators of the function of SWI/SNF related, matrix associated, actin dependent regulator of chromatin, subfamily a, member 2 (SMARCA2, BRM): Luminescence-based cell-based high throughput dose response assay to identify non-selective compounds using the VP16 reporter assay.", "assay_type": "functional"}, "[14]": {"test": "cytotoxicity in HMLE control line with eGFP shRNA, dose response, counter-screen for HMLE_sh_ECad selective toxicity project, cell-based, HMLE_sh_eGFP, luminescence (AID 463074);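 further: HMLE human mammary epithelial cells expressing control shRNA against eGFP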", "assay_type": "functional, Homo sapiens"}}, "note": "Activity calls are given as the source filed them.", "data": [{"smiles": "C=C(C)C(=O)Nc1cccc(C2=NOC3(C2)C[C@@H](C(N)=O)N(C(=O)/C=C/C=C/C)C3)c1", "note": "(some centres not stated)", "values": [{"measurement": "IC50", "setting": "[1]", "result": "1.72 µM (active)"}, {"measurement": "EC50", "setting": "[2]", "result": "1.17 µM (active)"}, {"measurement": "IC50", "setting": "[3]", "result": "> 66.6 µM (inactive)"}, {"measurement": "IC50", "setting": "[4]", "result": "> 100 µM (inactive)"}, {"measurement": "IC50", "setting": "[5]", "result": "34.3 µM (active)"}, {"measurement": "IC50", "setting": "[6]", "result": "10 µM (active)"}, {"measurement": "IC50", "setting": "[7]", "result": "3.41 µM (active)"}, {"measurement": "IC50", "setting": "[8]", "result": "3.25 µM (active)"}, {"measurement": "IC50", "setting": "[9]", "result": "2.3 µM (active)"}]}, {"smiles": "Cc1oc2c(cc(NS(=O)(=O)c3ccc(C(C)C)cc3)c3ccccc32)c1C(=O)O", "values": [{"measurement": "AC50", "setting": "Caspase-6", "result": "4 µM (active)"}, {"measurement": "AC50", "setting": "Caspase-7", "result": "> 70 µM (inactive)"}, {"measurement": "AC50", "setting": "Keap1/Nrf2", "result": "21.7 µM (active)"}]}, {"smiles": "C=CC(=O)OCCOCCOCCOCCOC(=O)C=C", "values": [{"measurement": "AC50", "setting": "[10]", "result": "19.2 µM (active)"}, {"measurement": "AC50", "setting": "[11]", "result": "25 µM (active)"}, {"measurement": "EC50", "setting": "[12]", "result": "> 91.2 µM (inactive)"}, {"measurement": "EC50", "setting": "[13]", "result": "> 91.2 µM (inactive)"}, {"measurement": "AC50", "setting": "[14]", "result": "92 µM (active)"}]}]}
